Source: US6838580B2, “Opioid derivative” (Teikoku Seiyaku Co., Ltd., priority 2002, dated 2005)

Experiments:
δ-opioid receptor [1] = target: T1, δ-opioid receptor (Rattus norvegicus, UniProt P33533); experiment: Competitive receptor binding assay, synaptic membrane fraction, [3H]DPDPE; settings: rat brain synaptic membrane, read-out: Affinity of receptor (Ki, nM) δ
T1 construct: synaptic membrane fraction obtained from the rat brain tissue; from tissue; host or cells: Sprague-Dawley rat brain without cerebellum, synaptic membrane (P2) fraction
Experimental: (§1) Regarding the opioid peptide derivatives synthesized in Examples and Reference Examples, the μ- and δ-opioid receptor affinities were obtained by a competitive receptor assay using the synaptic membrane fraction obtained from the rat brain tissue according to the known methods. That is, Sprague-Dawley rats having an average weight of 150-180 g were killed by decapitation, the brain tissue from which cerebellum had been removed was homogenized in 0.32M sucrose and 1 mM HEPES (pH 7.5) containing 50 μg/ml soybean trypsin inhibitor, fractionated and centrifuged to obtain the synaptic membrane fraction (P2 fraction), which was pre-incubated in 50 mM HEPES (pH 7.5) containing 100 mM NaCl, 0.1 mM GDP and soybean trypsin inhibitor to remove endogenous ligands from the P2 fraction.
(§2) A competitive receptor binding assay (Radiolabeled receptor assay: RRA) based on an exchange reaction between a radioactive ligand for the synaptic membrane fraction and a peptide derivative to be tested was performed by using tritium-labeled [^3H]DAGO which is a μ-opioid receptor agonist and tritium-labeled [^3H]DPDPE which has the high δ-opioid receptor selectivity, and incubating an aliquot of the synaptic membrane with the peptide derivative to be tested for a period of time. Upon this, an exchange reaction between a ligand was performed under constant conditions, the radiation remaining in the synaptic membrane fraction was measured, and an amount of the ligand adsorbed onto the synaptic membrane fraction is calculated. By assuming that binding with a receptor occurs in competition between a radioactive ligand and an end ligand, the concentration (IC50) at which the maximum specific binding of the radioactive ligand is 50% inhibited was obtained, from which the affinity constant (Ki) was calculated by a method of Cheng et al. (Biochem. Pharmcol., 22, 3099(1973)).

δ-opioid receptor [2] = target: T2, δ-opioid receptor (Mus musculus, UniProt P32300); experiment: Mouse seminiferous tract (MVD) assay, inhibition of electrically stimulated constriction; type: cell-based; settings: agonist activity, read-out: MVD (IC50 ± S.E.)
T2 construct: using mouse seminiferous tract in place of guinea pig ileum; from tissue; host or cells: mouse seminiferous tract (vas deferens, MVD), organ bath

μ-opioid receptor = target: T3, μ-opioid receptor (Rattus norvegicus, UniProt P33535); experiment: Competitive receptor binding assay, synaptic membrane fraction, [3H]DAGO; settings: for Ki: rat brain synaptic membrane, [3H]DAGO, read-out: Affinity of receptor (Ki, nM) μ; for Selectivity δ/μ: ratio Ki δ / Ki μ
T3 construct: synaptic membrane fraction obtained from the rat brain tissue; from tissue; host or cells: Sprague-Dawley rat brain without cerebellum, synaptic membrane (P2) fraction
Experimental: as §1, §2

SD Male rats [3] = experiment: Analgesic effect, Randoll-Seritto hind limb pressure method, subcutaneous administration; type: in vivo; settings: rat, s.c., 5 mg/kg
Experimental: (§3) SD Male rats, weighing 110 to 130 g, were used. One group consisted of five rats. The analgesic effects were examined by a Randoll-Seritto method. […] The threshold was expressed in mm Hg. During the measurement, the upper limit of the pressure applied to a hind limb was 100 mm Hg in order to avoid damage of the tissues.
(§4) 2) When administered intravenously (i.v.), a volume of 2 ml/kg weight was administered to a tail vein and, when administered subcutaneously (s.c.), a volume of 2 ml/kg weight was subcutaneously administered to the back. In the case of intravenous administration, a 1 mg/kg, 3 mg/kg or 10 mg/kg compound of Ex.1 administration group, a 1 mg/kg, 3 mg/kg or 10 mg/kg compound of Ex.4 administration group, a 2 ml/kg physiological saline administration group and a 5 mg/kg morphine hydrochloride administration group were made, respectively. In the case of subcutaneous administration, a 10 mg/kg, 30 mg/kg or 100 mg/kg compound of Ex.1 administration group, a 10 mg/kg, 30 mg/kg or 100 mg/kg compound of Ex.4 administration group, a 2 ml/kg physiological saline administration group and a 5 mg/kg morphine hydrochloride administration group were made, respectively. Observation of the analgesic action was performed 15 minutes, 30 minutes, 1 hour and 2 hours after administration in the case of intravenous administration, 30 minutes, 1 hour, 2 hours and 3 hours after administration in the case of subcutaneous administration, respectively.
(§5) In order to perform a significant difference test between respective administration groups and control groups, and between values at respective times before administration and after administration, a Dunnet multiple comparative test method was used. In the statistical processing for performing a significant difference test between morphine hydrochloride administration groups and control groups, Student t-test was used. For performing a significant difference test between values at respective times before administration and after administration in morphine hydrochloride administration groups, a Dunnet multiple comparative test method was used. A significant level was at 5 or lower % risk rate (two-tailed test).

SD Male rats [4] = experiment: Analgesic effect, Randoll-Seritto hind limb pressure method, intravenous administration; type: in vivo; settings: rat, i.v., 5 mg/kg
Experimental: as §3, §4, §5

SD Male rats [5] = experiment: Analgesic effect, Randoll-Seritto hind limb pressure method, intracerebroventricular administration; type: in vivo; settings: rat, i.c.v., 3 μg/animal
From the text: as §3
1) When performing intracerebroventricular administration (i.c.v.), a rat was fixed to a brain stereotactic fixing apparatus under slight ether anesthesia, the skin at a head was dissected, and an administration cannula was inserted into a place at a transverse of […] from a bregma position and a depth of 3.5 to 4.0 mm. The administration volume was 10 μl/animal. Observation of the analgesic action was performed before administration, and at 30 minutes, and 1, 2, 3, 4 and 5 hours after administration. Doses of both compounds were 0.1, 1 and 10 μg/animal. Separately, a group to which 5 mg/kg of naltrexone hydrochloride was administered subcutaneously immediately after compound of Ex.1 10 μg/animal i.c.v and a group to which 5 mg/kg of naltrexone hydrochloride was administered subcutaneously immediately after compound of Ex.4 10 μg/animal i.c.v. was made. In addition, as morphine hydrochloride at a dose of 3 μg/animal i.c.v. group was used as a positive control group and a physiological saline 10 μl/animal i.c.v. group as a control group was made, respectively.
as §5

T2 sequence (P32300 whole entry): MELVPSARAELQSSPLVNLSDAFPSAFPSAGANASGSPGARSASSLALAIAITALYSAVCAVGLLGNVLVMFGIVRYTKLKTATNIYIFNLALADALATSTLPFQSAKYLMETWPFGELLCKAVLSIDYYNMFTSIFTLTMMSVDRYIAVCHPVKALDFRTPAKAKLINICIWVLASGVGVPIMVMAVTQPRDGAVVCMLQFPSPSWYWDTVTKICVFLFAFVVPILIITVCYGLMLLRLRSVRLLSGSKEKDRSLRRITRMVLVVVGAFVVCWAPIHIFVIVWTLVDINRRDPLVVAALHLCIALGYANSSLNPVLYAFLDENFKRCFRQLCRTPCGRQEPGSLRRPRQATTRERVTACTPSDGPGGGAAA
T3 sequence (P33535 whole entry): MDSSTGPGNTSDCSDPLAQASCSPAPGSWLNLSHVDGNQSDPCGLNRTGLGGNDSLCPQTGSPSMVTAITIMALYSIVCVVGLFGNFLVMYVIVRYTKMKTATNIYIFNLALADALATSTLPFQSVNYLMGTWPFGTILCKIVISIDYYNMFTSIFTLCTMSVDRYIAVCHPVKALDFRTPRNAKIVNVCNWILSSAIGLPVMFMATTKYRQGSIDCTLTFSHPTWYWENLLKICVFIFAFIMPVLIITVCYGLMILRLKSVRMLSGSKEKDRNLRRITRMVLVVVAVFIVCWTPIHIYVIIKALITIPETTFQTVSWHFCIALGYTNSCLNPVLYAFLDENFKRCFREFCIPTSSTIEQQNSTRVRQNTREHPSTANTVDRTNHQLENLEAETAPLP
T1 sequence (P33533 whole entry): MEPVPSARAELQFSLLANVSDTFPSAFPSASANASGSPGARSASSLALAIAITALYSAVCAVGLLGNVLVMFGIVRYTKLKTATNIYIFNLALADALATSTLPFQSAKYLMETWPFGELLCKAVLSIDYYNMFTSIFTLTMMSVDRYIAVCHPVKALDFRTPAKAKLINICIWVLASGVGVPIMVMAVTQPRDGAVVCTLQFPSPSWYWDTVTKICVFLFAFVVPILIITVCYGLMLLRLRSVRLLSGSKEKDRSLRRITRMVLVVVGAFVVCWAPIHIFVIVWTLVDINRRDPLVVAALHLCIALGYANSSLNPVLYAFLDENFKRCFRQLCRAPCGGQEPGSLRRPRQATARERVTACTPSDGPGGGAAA

| SMILES | Ki (δ-opioid receptor [1]) | IC50 (δ-opioid receptor [2]) | Ki (μ-opioid receptor) | Selectivity δ/μ (μ-opioid receptor) | other results |
| --- | --- | --- | --- | --- | --- |
| Cc1cc(O)cc(C)c1C[C@H](N)C(=O)NCCCCNC(=O)[C@@H](N)Cc1ccccc1 [Ex.2, 1-Dmt-amino-4-Phe-aminobutane.2HCl] | 61 ± 5.7 nM | > 10000 nM | 0.52 ± 0.089 nM | 117 |  |
| Cc1cc(O)cc(C)c1C[C@H](N)C(=O)NCCCCNC(=O)[C@@H](N)Cc1ccc(O)cc1 [Ex.3, 1-(Dmt-amino)-4-Tyr-aminobutane.2HCl] | 133 ± 18 nM | > 10000 nM | 0.38 ± 0.02 nM | 349 |  |
| Cc1cc(O)cc(C)c1C[C@H](N)C(=O)NCCNC(=O)[C@@H](N)Cc1c(C)cc(O)cc1C [Ex.5, 1,2-Bis(Dmt-amino)ethane.2TFA] | 116 ± 10.6 nM | > 10000 nM | 1.43 ± 0.01 nM | 81 |  |
| Cc1cc(O)cc(C)c1C[C@H](N)C(=O)NCCCCCCCCNC(=O)[C@@H](N)Cc1c(C)cc(O)cc1C [Ex.6, 1,8-Bis(Dmt-amino)octane.2TFA] | 14.8 ± 3 nM | > 10000 nM | 0.19 ± 0.024 nM | 78 |  |
| CN1CC[C@]23c4c5ccc(O)c4O[C@H]2[C@@H](O)C=C[C@H]3[C@H]1C5.Cl [Morphine, morphine hydrochloride, reference compound] |  |  |  |  | Change in escape reaction threshold / analgesic effect, in words (SD Male rats [3]): significant increase was recognized 30 minutes, 1 hour and 2 hours after administration; Threshold (mmHg) (SD Male rats [3]; 0.5 hr): 87 ± 2^##,$$ mmHg; Threshold (mmHg) (SD Male rats [3]; 1 hr): 85 ± 6^##,$$ mmHg; Threshold (mmHg) (SD Male rats [3]; 2 hr): 71 ± 7^#,$ mmHg; Threshold (mmHg) (SD Male rats [3]; 3 hr): 61 ± 7 mmHg; Threshold (mmHg) (SD Male rats [3]; before administration): 48 ± 2 mmHg; Change in escape reaction threshold / analgesic effect, in words (SD Male rats [4]): significant increase in the escape reaction threshold was recognized 15 minutes, 30 minutes and 1 hour after administration; Threshold (mmHg) (SD Male rats [4]; 0.25 hr): 83 ± 6^##,$$ mmHg; Threshold (mmHg) (SD Male rats [4]; 0.5 hr): 79 ± 7^##,$$ mmHg; Threshold (mmHg) (SD Male rats [4]; 1 hr): 78 ± 6^##,$$ mmHg; Threshold (mmHg) (SD Male rats [4]; 2 hr): 65 ± 7 mmHg; Threshold (mmHg) (SD Male rats [4]; before administration): 49 ± 2 mmHg; Change in escape reaction threshold / analgesic effect, in words (SD Male rats [5]): significant increase in the threshold was recognized 30 minutes, 1 hour and 3 hours after administration; Threshold (mmHg) (SD Male rats [5]; 0.5 hr): 59 ± 4 mmHg; Threshold (mmHg) (SD Male rats [5]; 1 hr): 59 ± 3 mmHg; Threshold (mmHg) (SD Male rats [5]; 2 hr): 52 ± 3 mmHg; Threshold (mmHg) (SD Male rats [5]; 3 hr): 52 ± 3 mmHg; Threshold (mmHg) (SD Male rats [5]; 4 hr): 49 ± 2 mmHg; Threshold (mmHg) (SD Male rats [5]; 5 hr): 51 ± 2 mmHg; Threshold (mmHg) (SD Male rats [5]; before administration): 46 ± 1 mmHg |
| N[C@@H](Cc1ccccc1)C(=O)NCCCCNC(=O)[C@@H](N)Cc1ccccc1 [Ref.ex.1, 1,4-Bis(Phe-amino)butane.2HCl, reference compound] | 46200 nM |  | 1530 nM | 30 |  |
| N[C@@H](Cc1ccc(O)cc1)C(=O)NCCCCNC(=O)[C@@H](N)Cc1ccc(O)cc1 [Ref.ex.2, 1,4-Bis(Tyr-amino)butane.2HCl, reference compound] | 6500 nM |  | 309 ± 104 nM | 21 |  |
| N[C@@H](Cc1ccc(O)cc1)C(=O)NCCCCCCNC(=O)[C@@H](N)Cc1ccc(O)cc1.O=C(O)C(F)(F)F.O=C(O)C(F)(F)F [Ref.ex.3, 1,6-Bis(Tyr-amino)hexane.2TFA, reference compound] | 21900 nM |  | 410 ± 85 nM | 53 |  |
| N[C@@H](Cc1ccc(O)cc1)C(=O)NCCNC(=O)[C@@H](N)Cc1ccc(O)cc1 [Ref.ex.4, 1,2-Bis(Tyr-amino)ethane.2TFA, reference compound] | 8290 nM |  | 648 ± 95 nM | 13 |  |
| N[C@@H](Cc1ccc(O)cc1)C(=O)NCCCCCCCCNC(=O)[C@@H](N)Cc1ccc(O)cc1 [Ref.ex.5, 1,8-Bis(Tyr-amino)octane.2TFA, reference compound] | 6150 nM |  | 399 ± 40.5 nM |  |  |
